For orientation: pIC50 means −log10 of the IC50, conventionally taken in molar units.

pIC50: −log10 of the molar value.

IC50 data for 28 molecules are collected here from US10668067B2, “Pyridine sulfonamides” (AMGEN INC., priority 2016, dated 2020).

human Nav1.7, sequence (Q15858 whole entry): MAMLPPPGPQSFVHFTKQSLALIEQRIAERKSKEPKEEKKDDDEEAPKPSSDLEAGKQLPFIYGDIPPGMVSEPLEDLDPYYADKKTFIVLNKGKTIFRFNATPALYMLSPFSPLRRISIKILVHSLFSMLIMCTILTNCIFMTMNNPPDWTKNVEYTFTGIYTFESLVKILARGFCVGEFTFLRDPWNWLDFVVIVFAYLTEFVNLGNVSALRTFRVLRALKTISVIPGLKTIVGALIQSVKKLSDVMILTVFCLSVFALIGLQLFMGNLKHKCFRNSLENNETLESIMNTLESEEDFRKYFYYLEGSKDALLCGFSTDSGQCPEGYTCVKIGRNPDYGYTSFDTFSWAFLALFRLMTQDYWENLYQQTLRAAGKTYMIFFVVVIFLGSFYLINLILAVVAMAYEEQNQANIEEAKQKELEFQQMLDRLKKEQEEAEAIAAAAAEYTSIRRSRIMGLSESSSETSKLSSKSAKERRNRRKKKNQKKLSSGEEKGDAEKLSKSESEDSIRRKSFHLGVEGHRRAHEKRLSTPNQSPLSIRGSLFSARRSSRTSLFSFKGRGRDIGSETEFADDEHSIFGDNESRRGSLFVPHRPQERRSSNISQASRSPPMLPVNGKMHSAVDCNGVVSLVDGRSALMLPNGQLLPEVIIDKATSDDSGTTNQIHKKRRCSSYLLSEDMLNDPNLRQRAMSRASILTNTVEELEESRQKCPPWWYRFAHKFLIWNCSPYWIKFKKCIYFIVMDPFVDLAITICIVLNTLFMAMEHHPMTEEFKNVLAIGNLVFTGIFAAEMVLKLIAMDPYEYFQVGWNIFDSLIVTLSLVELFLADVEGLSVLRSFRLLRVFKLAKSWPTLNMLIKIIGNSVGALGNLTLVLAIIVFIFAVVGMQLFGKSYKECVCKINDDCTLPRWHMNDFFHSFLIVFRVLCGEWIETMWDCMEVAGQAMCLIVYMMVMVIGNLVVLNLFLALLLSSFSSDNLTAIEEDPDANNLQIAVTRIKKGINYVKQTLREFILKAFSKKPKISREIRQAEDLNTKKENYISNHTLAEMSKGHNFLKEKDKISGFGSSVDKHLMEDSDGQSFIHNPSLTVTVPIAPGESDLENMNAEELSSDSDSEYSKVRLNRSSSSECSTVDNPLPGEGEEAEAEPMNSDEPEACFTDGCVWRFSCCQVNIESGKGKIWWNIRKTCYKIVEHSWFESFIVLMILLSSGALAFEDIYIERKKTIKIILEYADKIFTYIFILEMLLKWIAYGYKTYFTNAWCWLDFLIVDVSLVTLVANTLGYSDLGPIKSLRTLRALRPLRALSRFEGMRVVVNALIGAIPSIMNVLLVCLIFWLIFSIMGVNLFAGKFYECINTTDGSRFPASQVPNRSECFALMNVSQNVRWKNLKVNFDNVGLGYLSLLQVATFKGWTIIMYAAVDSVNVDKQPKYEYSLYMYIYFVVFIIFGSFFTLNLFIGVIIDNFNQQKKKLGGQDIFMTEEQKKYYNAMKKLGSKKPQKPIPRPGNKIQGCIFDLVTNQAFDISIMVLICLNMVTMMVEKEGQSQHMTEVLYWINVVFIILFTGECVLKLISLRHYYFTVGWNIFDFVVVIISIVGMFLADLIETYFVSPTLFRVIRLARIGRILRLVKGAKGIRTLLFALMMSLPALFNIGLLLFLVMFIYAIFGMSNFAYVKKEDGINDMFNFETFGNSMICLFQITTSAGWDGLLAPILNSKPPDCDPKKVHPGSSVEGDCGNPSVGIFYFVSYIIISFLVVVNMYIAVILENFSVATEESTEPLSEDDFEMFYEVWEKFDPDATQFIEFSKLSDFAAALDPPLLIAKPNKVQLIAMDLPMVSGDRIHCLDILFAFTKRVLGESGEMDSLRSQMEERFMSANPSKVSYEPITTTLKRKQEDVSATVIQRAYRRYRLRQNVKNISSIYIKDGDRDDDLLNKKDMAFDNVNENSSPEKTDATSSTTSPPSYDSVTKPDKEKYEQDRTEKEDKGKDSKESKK

The assay addresses human Nav1.7 (Homo sapiens (Human), UniProt Q15858). As to the kind of experiment: Nav 1.7 In Vitro PX Assay (PatchXpress whole cell voltage clamp). The assay is classed as cell-based. The note with it: in-vitro Nav 1.7 PX data. An outline of the steps: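 Partially inactivated channels (20–50% inactivation at holding potential) probed by 20 ms pulses to −10 mV repeated at 0.1 Hz, in stable human Nav1.7 HEK293 cells.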
`CNC(=O)N(c1ccc(S(=O)(=O)Nc2ccon2)cn1)c1cc(Cl)c(-c2cccc(C3CC3)c2)cc1OC` [Example 1-38, 6-((2-chloro-3′-cyclopropyl-5-methoxy-4-biphenylyl)(methylcarbamoyl)amino)-N-3-isoxazolyl-3-pyridinesulfonamide] gave a pIC50 of 7.68. On to `CNC(=O)N(c1ccc(S(=O)(=O)Nc2nocc2C)cn1)c1cc(F)c(-c2ccc(F)c(OCC(F)(F)F)c2)cc1OC` [Example 2-14, 6-(1-(2,4′-difluoro-5-methoxy-3′-(2,2,2-trifluoroethoxy)-[1,1′-biphenyl]-4-yl)-3-methylureido)-N-(4-methylisoxazol-3-yl)pyridine-3-sulfonamide], for which the pIC50 was 6.21. Regarding `CNC(=O)N(c1ccc(S(=O)(=O)Nc2ccon2)cn1)c1cc(Cl)c(-c2cc(Cl)cnc2OC)cc1OC` [Example 1-41, 6-((5-chloro-4-(5-chloro-2-methoxy-3-pyridinyl)-2-methoxyphenyl)(methylcarbamoyl)amino)-N-3-isoxazolyl-3-pyridinesulfonamide], the pIC50 is 6.78. The figure for `CNC(=O)N(c1ccc(S(=O)(=O)Nc2nocc2C)cn1)c1cc(F)c(-c2ccc(F)c(C(F)(F)F)c2)cc1OC` [Example 2-13, 6-(1-(2,4′-difluoro-5-methoxy-3′-(trifluoromethyl)-[1,1′-biphenyl]-4-yl)-3-methylureido)-N-(4-methylisoxazol-3-yl)pyridine-3-sulfonamide] is 6.94. Regarding `CNC(=O)N(c1ccc(S(=O)(=O)Nc2ccon2)cn1)c1ccc(-c2ccc(Cl)c(C)c2)cc1OC` [Example 1-73, 6-((4′-chloro-3-methoxy-3′-methyl-4-biphenylyl)(methylcarbamoyl)amino)-N-3-isoxazolyl-3-pyridinesulfonamide], the negative logarithm of the IC50 (pIC50) is 7.19. For `CNC(=O)N(c1ccc(S(=O)(=O)Nc2ncccn2)cn1)c1cc(F)c(-c2ccc(F)c(C(F)(F)F)c2)cc1OC` [Example 1-85, 6-((2,4′-difluoro-5-methoxy-3′-(trifluoromethyl)-4-biphenylyl)(methylcarbamoyl)amino)-N-2-pyrimidinyl-3-pyridinesulfonamide], the pIC50 was 7.49. The figure for `CNC(=O)N(c1ccc(S(=O)(=O)Nc2ccon2)cn1)c1cc(Cl)c(-c2ccc(Cl)c(OC)c2)cc1OC` [Example 1-33, 6-((2,4′-dichloro-3′,5-dimethoxy-4-biphenylyl)(methylcarbamoyl)amino)-N-3-isoxazolyl-3-pyridinesulfonamide] is 7.37. The figure for `CNC(=O)N(c1ccc(S(=O)(=O)Nc2ccon2)cn1)c1cc(F)c(-c2cccc(C(F)(F)F)c2)cc1OC` [Example 1-4, 6-((2-fluoro-5-methoxy-3′-(trifluoromethyl)-4-biphenylyl)(methylcarbamoyl)amino)-N-3-isoxazolyl-3-pyridinesulfonamide] is 7.48; for `CNC(=O)N(c1ccc(S(=O)(=O)Nc2ccon2)cn1)c1cc(Cl)c(-c2cc(F)c(F)c(F)c2)cc1OC` [Example 1-52, 6-((2-chloro-3′,4′,5′-trifluoro-5-methoxy-4-biphenylyl)(methylcarbamoyl)amino)-N-3-isoxazolyl-3-pyridinesulfonamide] it is 7.51. The figure for `CNC(=O)N(c1ccc(S(=O)(=O)Nc2ccon2)cn1)c1cc(F)c(-c2ccc(F)c(C)c2)cc1OC` [Example 1-16, 6-((2,4′-difluoro-5-methoxy-3′-methyl-4-biphenylyl)(methylcarbamoyl)amino)-N-3-isoxazolyl-3-pyridinesulfonamide] is 7.21; for `CNC(=O)N(c1ccc(S(=O)(=O)Nc2ccon2)cn1)c1cc(Cl)c(-c2cccc(OC(C)C)c2)cc1OC` [Example 1-48, 6-((2-chloro-5-methoxy-3′-(1-methylethoxy)-4-biphenylyl)(methylcarbamoyl)amino)-N-3-isoxazolyl-3-pyridinesulfonamide] it is 7.15. `CNC(=O)N(c1ccc(S(=O)(=O)Nc2ccnc(C)n2)cn1)c1cc(Cl)c(-c2ccc(F)c(C(F)(F)F)c2)cc1OC` [Example 3-11, 6-((2-chloro-4′-fluoro-5-methoxy-3′-(trifluoromethyl)-4-biphenylyl)(methylcarbamoyl)amino)-N-(2-methyl-4-pyrimidinyl)-3-pyridinesulfonamide] showed a pIC50 of 7.59. This pIC50 lies 0.44 log units higher than the previous one.

`CNC(=O)N(c1ccc(S(=O)(=O)Nc2ncccn2)cn1)c1cc(F)c(-c2ccc(Cl)c(C(F)(F)F)c2)cc1OC` [Example 1-89, 6-((4′-chloro-2-fluoro-5-methoxy-3′-(trifluoromethyl)-4-biphenylyl)(methylcarbamoyl)amino)-N-2-pyrimidinyl-3-pyridinesulfonamide] showed a pIC50 of 7.35. The figure for `CNC(=O)N(c1ccc(S(=O)(=O)Nc2ccon2)cn1)c1cc(Cl)c(-c2cc(OC)nc(C(F)(F)F)c2)cc1OC` [Example 1-42, 6-((5-chloro-2-methoxy-4-(2-methoxy-6-(trifluoromethyl)-4-pyridinyl)phenyl)(methylcarbamoyl)amino)-N-3-isoxazolyl-3-pyridinesulfonamide] is 7.54; for `CNC(=O)N(c1ccc(S(=O)(=O)Nc2ccon2)cn1)c1cc(Cl)c(-c2cc(Cl)ccc2C)cc1OC` [Example 1-34, 6-((2,5′-dichloro-5-methoxy-2′-methyl-4-biphenylyl)(methylcarbamoyl)amino)-N-3-isoxazolyl-3-pyridinesulfonamide] it is 7.57; for `CNC(=O)N(c1ccc(S(=O)(=O)Nc2ncccn2)cn1)c1cc(Cl)c(-c2ccc(F)c(C(F)(F)F)c2)cc1OC` [Example 3-7, 6-((2-chloro-4′-fluoro-5-methoxy-3′-(trifluoromethyl)-4-biphenylyl)(methylcarbamoyl)amino)-N-2-pyrimidinyl-3-pyridinesulfonamide] it is 7.55. Molecule `CNC(=O)N(c1ccc(S(=O)(=O)Nc2ccon2)cn1)c1cc(Cl)c(-c2ccc(C(F)(F)F)cc2)cc1OC` [Example 1-45, 6-((2-chloro-5-methoxy-4′-(trifluoromethyl)-4-biphenylyl)(methylcarbamoyl)amino)-N-3-isoxazolyl-3-pyridinesulfonamide] had a pIC50 of 7.19. `CNC(=O)N(c1ccc(S(=O)(=O)Nc2ncccn2)cn1)c1cc(F)c(-c2cc(OC)cc(C(F)(F)F)c2)cc1OC` [Example 1-82, 6-((2-fluoro-3′,5-dimethoxy-5′-(trifluoromethyl)-4-biphenylyl)(methylcarbamoyl)amino)-N-2-pyrimidinyl-3-pyridinesulfonamide] gave a pIC50 of 7.74. The same measure for `CNC(=O)N(c1ccc(S(=O)(=O)Nc2ccon2)cn1)c1cc(Cl)c(-c2cccc(C(F)(F)F)c2)cc1OC` [Example 1-31, 6-((2-chloro-5-methoxy-3′-(trifluoromethyl)-4-biphenylyl)(methylcarbamoyl)amino)-N-3-isoxazolyl-3-pyridinesulfonamide]: 7.80. The same measure for `CNC(=O)N(c1ccc(S(=O)(=O)Nc2ccon2)cn1)c1cc(-c2cccc(C(F)(F)F)c2)ccc1OC` [Example 4-2, N-3-isoxazolyl-6-((4-methoxy-3′-(trifluoromethyl)-3-biphenylyl)(methylcarbamoyl)amino)-3-pyridinesulfonamide]: 6.73; for `CNC(=O)N(c1ccc(S(=O)(=O)Nc2cccnn2)cn1)c1cc(Cl)c(-c2cc(F)c(F)c(F)c2)cc1OC` [Example 2-5, 6-((2-chloro-3′,4′,5′-trifluoro-5-methoxy-4-biphenylyl)(methylcarbamoyl)amino)-N-3-pyridazinyl-3-pyridinesulfonamide]: 7.12.

In the case of `CNC(=O)N(c1ccc(S(=O)(=O)Nc2ccon2)cn1)c1cc(F)c(-c2cccc(C3CC3)c2)cc1OC` [Example 1-13, 6-((3′-cyclopropyl-2-fluoro-5-methoxy-4-biphenylyl)(methylcarbamoyl)amino)-N-3-isoxazolyl-3-pyridinesulfonamide], the pIC50 is 7.34. The same measure for `CNC(=O)N(c1ccc(S(=O)(=O)Nc2ccon2)cn1)c1cc(F)c(-c2ccc(Cl)c(Cl)c2)cc1OC` [Example 1-10, 6-((3′,4′-dichloro-2-fluoro-5-methoxy-4-biphenylyl)(methylcarbamoyl)amino)-N-3-isoxazolyl-3-pyridinesulfonamide]: 8.05; for `CNC(=O)N(c1ccc(S(=O)(=O)Nc2ccon2)cn1)c1cc(F)c(-c2cc(C)cc(F)c2)cc1OC` [Example 1-18, 6-((2,3′-difluoro-5-methoxy-5′-methyl-4-biphenylyl)(methylcarbamoyl)amino)-N-3-isoxazolyl-3-pyridinesulfonamide]: 6.84. The same measure for `CNC(=O)N(c1ccc(S(=O)(=O)Nc2ncccn2)cn1)c1cc(F)c(-c2cccc(C(F)(F)F)c2)cc1OC` [Example 1-81, 6-((2-fluoro-5-methoxy-3′-(trifluoromethyl)-4-biphenylyl)(methylcarbamoyl)amino)-N-2-pyrimidinyl-3-pyridinesulfonamide]: 6.84; for `CNC(=O)N(c1ccc(S(=O)(=O)Nc2ncccn2)cn1)c1cc(Cl)c(-c2cc(Cl)cc(C#N)c2)cc1OC` [Example 1-78, 6-((2,3′-dichloro-5′-cyano-5-methoxy-4-biphenylyl)(methylcarbamoyl)amino)-N-2-pyrimidinyl-3-pyridinesulfonamide]: 6.91. The same measure for `CCCCCCCCCCCCCCc1cc(OC)c(N(C(=O)NC)c2ccc(S(=O)(=O)Nc3ncccn3)cn2)cc1F` [Example 2-11, 6-(1-(5-Fluoro-2-methoxy-4-tetradecylphenyl)-3-methylureido)-N-(pyrimidin-2-yl)pyridine-3-sulfonamide]: 7.85; for `CNC(=O)N(c1ccc(S(=O)(=O)Nc2nocc2C)cn1)c1cc(F)c(-c2ccc(F)c(OC(F)(F)F)c2)cc1OC` [Example 2-12, 6-(1-(2,4′-difluoro-5-methoxy-3′-(trifluoromethoxy)-[1,1′-biphenyl]-4-yl)-3-methylureido)-N-(4-methylisoxazol-3-yl)pyridine-3-sulfonamide]: 7.20.
